Test results taken from US6482824B1, “Use of n-substituted (3,6-dihydro)-2h-1,2-oxazine derivatives as selective mglur1 antagonists” (Eli Lilly and Company, priority 1998, dated 2002).

Experiment: ability of test compounds to treat migraine (as described in U.S. Pat. No. 5,817,671, U.S. Pat. No. 5,792,763 and J. Neurosci. Methods 1998, 81, 19-24)
Conditions: in vivo

Question: Which “effectiveness in treatment of migraine” value does the source give for `CCOc1ccc(C2ON(S(=O)(=O)c3ccc(C(=O)NC)cc3)C(C)C=C2C)cc1` (stereo not shown) [Example 5, 3,6-Dihydro-3,5-dimethyl-6-(4-ethoxyphenyl)-2-(4-methylcarbamoylbenzenesulphonyl)-2H-1,2-oxazine] here?
Answer: The value was “particularly effective”.
